The structures appear in SMILES notation.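 Five compound concentrations were applied to cells in 96-well plates for 48 hours; endpoints were derived by simple linear interpolation of the resulting dose-response curve. Definition used: TGI = concentration required for complete inhibition of growth.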

Some test systems named below: NCI-H460 lung; SNB-78 CNS; HCC-2998 colon; UACC-62 melanoma; OVCAR-5 ovarian; CAKI-1 renal; UO-31 renal; SNB-19 CNS; HOP-92 NSCLC; U251 CNS.
What all share (test): growth of human tumour cells (NCI), 48 h

For the molecule `CC(=O)OC1C(COC(N)=O)OC(n2c(-c3ccc(C)cc3)cc(-c3ccccc3)c(C#N)c2=O)C(OC(C)=O)C1OC(C)=O` (stereo not given), the TGI with NCI-H460 lung, in the assay on SNB-78 CNS, with HCC-2998 colon, in the assay with UACC-62 melanoma, in the assay on OVCAR-5 ovarian and with CAKI-1 renal was greater than 100 µM in each case. Moreover, the TGI in the assay on UO-31 renal, in the assay on SNB-19 CNS, in the assay on HOP-92 NSCLC and with U251 CNS was greater than 100 µM in each case.

Consider `CCC(CO)COC(=O)/C=C/C(=O)OCC(CC)CO` (stereo not given), for which the TGI in the assay with NCI-H460 lung, in the assay with SNB-78 CNS, in the assay on HCC-2998 colon, with UACC-62 melanoma, in the assay with OVCAR-5 ovarian and in the assay with CAKI-1 renal was greater than 100 µM in each case. The TGI in the assay with UO-31 renal, in the assay with SNB-19 CNS, in the assay with HOP-92 NSCLC and in the assay on U251 CNS was greater than 100 µM in each case.

On to `CCOc1ccc(N=C2NC(=O)C(CC(=O)Nc3ccc(Cl)cc3Cl)S2)cc1` (stereo not given), for which the TGI in the assay on NCI-H460 lung, in the assay with SNB-78 CNS, in the assay with HCC-2998 colon, with UACC-62 melanoma, with OVCAR-5 ovarian and in the assay with CAKI-1 renal was greater than 100 µM in each case. Moreover, the TGI in the assay with UO-31 renal, in the assay on SNB-19 CNS and with U251 CNS was greater than 100 µM throughout.

`Nc1c2ccccc2nc2nccnc12`: the TGI with NCI-H460 lung, with SNB-78 CNS, in the assay with HCC-2998 colon, in the assay with UACC-62 melanoma, in the assay with OVCAR-5 ovarian and with CAKI-1 renal was greater than 100 µM throughout. The TGI in the assay on UO-31 renal, with SNB-19 CNS, with HOP-92 NSCLC and in the assay on U251 CNS was greater than 100 µM in each case.

On to `Cn1cnc([N+](=O)[O-])c1Sc1nccn1-c1ccccc1`, for which the TGI in the assay on NCI-H460 lung, in the assay on SNB-78 CNS, in the assay on HCC-2998 colon, in the assay with UACC-62 melanoma, with OVCAR-5 ovarian and with CAKI-1 renal was greater than 100 µM throughout. Also, the TGI with UO-31 renal is greater than 100 µM; in the assay on SNB-19 CNS, greater than 100 µM; in the assay on HOP-92 NSCLC, 81.1 µM; in the assay on U251 CNS, greater than 100 µM.

For `CC1OC(n2ccc3ccc([N+](=O)[O-])cc32)C(O)C(O)C1O` (stereo not given), the TGI in the assay on NCI-H460 lung, with SNB-78 CNS, in the assay with UACC-62 melanoma, with OVCAR-5 ovarian, with CAKI-1 renal and in the assay with UO-31 renal was greater than 100 µM in each case. Besides, the TGI with SNB-19 CNS, with HOP-92 NSCLC and with U251 CNS was greater than 100 µM each time.

Take `COc1ccc(/C=C2\C(=O)Nc3ccccc32)cc1OC`: the TGI with NCI-H460 lung, in the assay with SNB-78 CNS, with UACC-62 melanoma, with OVCAR-5 ovarian, in the assay on CAKI-1 renal and with UO-31 renal was greater than 100 µM in each case. Besides, the TGI in the assay on SNB-19 CNS, with HOP-92 NSCLC and in the assay with U251 CNS was greater than 100 µM throughout.

As to `OCC(O)COc1ccc(F)cc1` (stereo not given), the TGI in the assay with NCI-H460 lung, in the assay with SNB-78 CNS, in the assay on HCC-2998 colon, in the assay with UACC-62 melanoma, in the assay on OVCAR-5 ovarian and in the assay with CAKI-1 renal was greater than 100 µM in each case. In addition, the TGI in the assay on UO-31 renal, in the assay on SNB-19 CNS, in the assay on HOP-92 NSCLC and in the assay on U251 CNS was greater than 100 µM in each case.

As to `Cc1cc2c(=O)cc(-c3ccc(C(=O)O)cc3)oc2c(C(N)=O)c1C`, the TGI in the assay with NCI-H460 lung, in the assay on SNB-78 CNS, in the assay with HCC-2998 colon, in the assay on UACC-62 melanoma, with OVCAR-5 ovarian and in the assay on UO-31 renal was greater than 100 µM in each case. The TGI in the assay with SNB-19 CNS, in the assay on HOP-92 NSCLC and in the assay on U251 CNS was greater than 100 µM each time.

Consider `CCOC(=O)c1sc(Nc2cc(Cl)ccc2Cl)nc1C`, for which the TGI in the assay on NCI-H460 lung, with SNB-78 CNS, with HCC-2998 colon, with OVCAR-5 ovarian, with UO-31 renal and in the assay on SNB-19 CNS was greater than 100 µM throughout. Moreover, the figures for the TGI in the assay with HOP-92 NSCLC and with U251 CNS were 96.6 µM and greater than 100 µM, respectively.

Consider `CN1C(=O)CNS1(=O)=O`, for which the TGI in the assay with NCI-H460 lung, with SNB-78 CNS, in the assay with HCC-2998 colon, in the assay with UACC-62 melanoma, in the assay with OVCAR-5 ovarian and with UO-31 renal was greater than 100 µM in each case. Besides, the TGI in the assay on SNB-19 CNS, with HOP-92 NSCLC and in the assay with U251 CNS was greater than 100 µM in each case.

Turning to `COC(=O)c1oc([N+](=O)[O-])c(-c2ccccc2)c1-c1ccccc1`, the TGI in the assay with NCI-H460 lung, with SNB-78 CNS, in the assay on HCC-2998 colon, in the assay on UACC-62 melanoma, with OVCAR-5 ovarian and in the assay with CAKI-1 renal was greater than 100 µM each time. Moreover, the TGI in the assay with UO-31 renal, in the assay on SNB-19 CNS, in the assay with HOP-92 NSCLC and with U251 CNS was greater than 100 µM throughout.

Take `c1ccc2c(CNCCCN3CCN(CCCNCc4cccc5ccccc45)CC3)cccc2c1`: the TGI in the assay on NCI-H460 lung was found to be 2.81 µM; in the assay on SNB-78 CNS, 4.59 µM; in the assay with UACC-62 melanoma, 3.26 µM; in the assay on OVCAR-5 ovarian, 5.32 µM; in the assay on CAKI-1 renal, 4.02 µM; in the assay on UO-31 renal it was 3.22 µM. Moreover, the TGI amounted to 4.65 µM in the assay with HOP-92 NSCLC and 3.16 µM with U251 CNS.

`CCCCN(CCCC)C(=O)C(=O)C(C(=O)C(=O)OC)c1nc2ccccc2o1` (stereo not given): the TGI with NCI-H460 lung, with SNB-78 CNS, in the assay on HCC-2998 colon, in the assay on OVCAR-5 ovarian, in the assay with CAKI-1 renal and with UO-31 renal was greater than 100 µM in each case. Also, the TGI with SNB-19 CNS, with HOP-92 NSCLC and in the assay on U251 CNS was greater than 100 µM throughout.

Take `CNC(=O)N(CCCC(NC(C)=O)C(=O)NCc1ccccc1)Cc1ccccc1` (stereo not given): the TGI with NCI-H460 lung, in the assay on SNB-78 CNS, in the assay on HCC-2998 colon, in the assay on UACC-62 melanoma, with OVCAR-5 ovarian and in the assay with CAKI-1 renal was greater than 100 µM throughout. Further, the TGI with UO-31 renal, with SNB-19 CNS, in the assay with HOP-92 NSCLC and in the assay with U251 CNS was greater than 100 µM in each case.

For `Cc1ccccc1C(C#N)/C(=N/NC(N)=S)C(=O)Nc1c(C)cccc1C` (stereo not given), the TGI with NCI-H460 lung, with SNB-78 CNS, in the assay with HCC-2998 colon, in the assay on UACC-62 melanoma, in the assay with OVCAR-5 ovarian and in the assay with UO-31 renal was greater than 100 µM each time. Further, the TGI in the assay on SNB-19 CNS, in the assay with HOP-92 NSCLC and with U251 CNS was greater than 100 µM throughout.

As to `N#CCC(=O)N/N=C(/C(=O)Nc1ccccc1)C1C(=O)N(c2ccccc2)N=C1N` (stereo not given), the TGI in the assay on NCI-H460 lung, in the assay with SNB-78 CNS, in the assay on HCC-2998 colon, with UACC-62 melanoma, in the assay on OVCAR-5 ovarian and in the assay with CAKI-1 renal was greater than 100 µM in each case. Besides, the TGI in the assay on UO-31 renal, in the assay on SNB-19 CNS, with HOP-92 NSCLC and in the assay with U251 CNS was greater than 100 µM in each case.

Regarding `COC1OC(CO)C(O)C(NC(=O)N(C)N=O)C1O` (stereo not given), the TGI with NCI-H460 lung, with SNB-78 CNS, with HCC-2998 colon, in the assay with CAKI-1 renal, with UO-31 renal and in the assay with SNB-19 CNS was greater than 100 µM each time. The TGI with HOP-92 NSCLC and with U251 CNS was greater than 100 µM throughout.

For `O=C(O)COc1ccc2c3c1C(=O)CCC3CO2` (stereo not given), the TGI in the assay with NCI-H460 lung, with SNB-78 CNS, in the assay with HCC-2998 colon, with UACC-62 melanoma, with OVCAR-5 ovarian and in the assay with CAKI-1 renal was greater than 100 µM in each case. Moreover, the TGI with UO-31 renal, in the assay on SNB-19 CNS, in the assay with HOP-92 NSCLC and in the assay with U251 CNS was greater than 100 µM throughout.

Take `CC1=CC=C2C(C)(C)CC[C@@H]3OC(=O)[C@H]1[C@]23C`: the TGI with SNB-78 CNS, in the assay with HCC-2998 colon, with UACC-62 melanoma, with OVCAR-5 ovarian, in the assay with CAKI-1 renal and with UO-31 renal was greater than 100 µM each time. The TGI with SNB-19 CNS, in the assay with HOP-92 NSCLC and in the assay on U251 CNS was greater than 100 µM in each case.

In the case of `O=C(Cc1c(C(=O)Nc2ccccc2)sc(C(=O)Nc2ccccc2)c1CC(=O)Nc1ccccc1)Nc1ccccc1`, the TGI in the assay on NCI-H460 lung, in the assay on SNB-78 CNS, with HCC-2998 colon, with UACC-62 melanoma, with OVCAR-5 ovarian and in the assay on CAKI-1 renal was greater than 100 µM each time. For the same molecule, the TGI in the assay with UO-31 renal, with SNB-19 CNS, in the assay with HOP-92 NSCLC and with U251 CNS was greater than 100 µM each time.

`S=C1NC(c2ccccc2)=NC(Cc2ccccc2)(c2ccccc2)N1c1ccccc1` (stereo not given): the TGI with NCI-H460 lung, in the assay on SNB-78 CNS, in the assay with HCC-2998 colon, in the assay on UACC-62 melanoma, in the assay with OVCAR-5 ovarian and in the assay with CAKI-1 renal was greater than 100 µM throughout. Also, the TGI with UO-31 renal, in the assay on SNB-19 CNS and in the assay on HOP-92 NSCLC was greater than 100 µM each time.

(Values after PubChem BioAssay (NCI).)
